Assay results from ChEMBL document CHEMBL3769345, “Rapid Synthesis of Boc-2',6'-dimethyl-l-tyrosine and Derivatives and Incorporation into Opioid Peptidomimetics” (ACS Med Chem Lett, 2015).
Activity calls are given as the source filed them. The calls are words filed in the database; no cut-off is given here.

Tests used:
Mu-type opioid receptor [1] = target: T1, Mu-type opioid receptor (Rattus norvegicus, UniProt P33535); test: Displacement of [3H]diprenorphine from rat MOR expressed in rat C6 cells after 1 hr by liquid scintillation counting method; format: cell-based
T1 sequence (P33535 whole entry): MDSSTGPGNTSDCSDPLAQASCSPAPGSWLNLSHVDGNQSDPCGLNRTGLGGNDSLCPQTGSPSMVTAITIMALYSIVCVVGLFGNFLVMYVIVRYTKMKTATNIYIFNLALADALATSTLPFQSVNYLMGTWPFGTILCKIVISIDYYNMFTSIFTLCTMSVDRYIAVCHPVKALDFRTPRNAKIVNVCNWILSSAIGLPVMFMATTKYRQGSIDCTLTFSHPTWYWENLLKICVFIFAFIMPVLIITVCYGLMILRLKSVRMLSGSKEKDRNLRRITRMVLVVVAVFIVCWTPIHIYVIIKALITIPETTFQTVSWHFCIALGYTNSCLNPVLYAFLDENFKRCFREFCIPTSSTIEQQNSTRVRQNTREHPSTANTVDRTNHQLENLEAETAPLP

[2] = target: T2, Delta-type opioid receptor (Rattus norvegicus, UniProt P33533); test: Displacement of [3H]diprenorphine from rat DOR expressed in rat C6 cells after 1 hr by liquid scintillation counting method; format: cell-based
T2 sequence (P33533 whole entry): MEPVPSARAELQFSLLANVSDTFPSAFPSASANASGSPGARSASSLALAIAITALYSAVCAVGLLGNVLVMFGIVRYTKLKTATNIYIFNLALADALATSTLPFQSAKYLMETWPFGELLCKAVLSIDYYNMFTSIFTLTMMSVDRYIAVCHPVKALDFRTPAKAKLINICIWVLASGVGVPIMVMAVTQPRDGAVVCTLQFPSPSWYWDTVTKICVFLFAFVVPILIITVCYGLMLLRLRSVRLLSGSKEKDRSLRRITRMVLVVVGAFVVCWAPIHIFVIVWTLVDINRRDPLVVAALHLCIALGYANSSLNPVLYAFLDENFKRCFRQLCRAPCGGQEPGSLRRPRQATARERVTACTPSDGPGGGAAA

[3] = target: T3, Kappa-type opioid receptor (Homo sapiens, UniProt P41145); test: Displacement of [3H]diprenorphine from human KOR expressed in CHO cells after 1 hr by liquid scintillation counting method; format: cell-based
T3 sequence (P41145 whole entry): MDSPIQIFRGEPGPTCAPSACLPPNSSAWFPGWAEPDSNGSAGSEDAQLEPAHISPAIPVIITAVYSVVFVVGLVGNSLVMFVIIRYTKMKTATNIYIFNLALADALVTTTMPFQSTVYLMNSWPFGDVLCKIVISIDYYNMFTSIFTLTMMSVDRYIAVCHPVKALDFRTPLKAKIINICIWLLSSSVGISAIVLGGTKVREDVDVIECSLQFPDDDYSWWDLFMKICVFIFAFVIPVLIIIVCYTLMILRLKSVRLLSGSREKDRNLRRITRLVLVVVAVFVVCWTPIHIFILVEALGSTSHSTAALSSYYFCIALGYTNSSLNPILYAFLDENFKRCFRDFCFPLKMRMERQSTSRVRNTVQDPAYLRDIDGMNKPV

Mu-type opioid receptor [4] = target: T1, Mu-type opioid receptor; test: Agonist activity at rat MOR expressed in rat C6 cells after 1 hr by [35S]GTPgammaS binding assay; format: functional, cell-based
[5] = target: T2, Delta-type opioid receptor; test: Agonist activity at rat DOR expressed in rat C6 cells after 1 hr by [35S]GTPgammaS binding assay; format: functional, cell-based
[6] = target: T3, Kappa-type opioid receptor; test: Agonist activity at human KOR expressed in CHO cells after 1 hr by [35S]GTPgammaS binding assay; format: functional, cell-based
[7] = target: Mu-type opioid receptor (Rattus norvegicus) (UniProt P33535); test: Agonist activity at rat MOR expressed in rat C6 cells at 10 uM after 1 hr by [35S]GTPgammaS binding assay relative to DAMGO; format: functional, cell-based
Mu-type opioid receptor (Rattus norvegicus), sequence (P33535 whole entry): as the sequence (P33535 whole entry) above

[8] = target: Delta-type opioid receptor (Rattus norvegicus) (UniProt P33533); test: Agonist activity at rat DOR expressed in rat C6 cells at 10 uM after 1 hr by [35S]GTPgammaS binding assay relative to DPDPE; format: functional, cell-based
Delta-type opioid receptor (Rattus norvegicus), sequence (P33533 whole entry): as the sequence (P33533 whole entry) above

[9] = target: T3, Kappa-type opioid receptor; test: Agonist activity at human KOR expressed in CHO cells at 10 uM after 1 hr by [35S]GTPgammaS binding assay relative to U69,593; format: functional, cell-based

SMILES	Ki (Mu-type opioid receptor [1]) [nM]	Ki [2] [nM]	Ki [3] [nM]	EC50 (Mu-type opioid receptor [4]) [nM]	EC50 ([5]; read-out: EC50) [nM]	EC50 [6] [nM]	max activation [7] [%]	max activation [8]	max activation [9] [%]	EC50 ([5]; c6)
Cc1cc(C[C@H](N)C(=O)N[C@@H]2CCNc3ccc(Cc4ccccc4)cc32)c(C)cc1O	6.5	390	730	39	5900	370	89	53%	22	
N[C@@H](Cc1c(Cl)cc(O)cc1Cl)C(=O)N[C@@H]1CCNc2ccc(Cc3ccccc3)cc21	0.47	37	35	33		1200	83	inactive	32	Not Active
Cc1cc(O)ccc1C[C@H](N)C(=O)N[C@@H]1CCNc2ccc(Cc3ccccc3)cc21	1.7	42	96	44		2400	69		41	Not Active
Cc1cccc(C)c1C[C@H](N)C(=O)N[C@@H]1CCNc2ccc(Cc3ccccc3)cc21	18	660	130	280		4800	86		38	Not Active
N[C@@H](Cc1ccc2cccc(O)c2c1)C(=O)N[C@@H]1CCNc2ccc(Cc3ccccc3)cc21	440	1600	2500							
